{"source": "patent US12038447B2", "about": "(priority 2017, dated 2024)", "key": {"[1]": {"tested_on": "human serum albumin (HSA) and lysozyme (LYZ)", "test": "Protein resistance of E0-6 rSAMs on MHA gold, IRAS amide I and ellipsometry", "assay_type": "binding", "settings": "HSA or LYZ 1 mg/mL, pH 8, rSAM on MHA gold"}, "[2]": {"test": "pH titration of rinsed rSAM layers, ellipsometric thickness", "assay_type": "physicochemical", "settings": "on MBA SAMs"}, "[3]": {"test": "Fluorescence recovery after photobleaching (FRAP), lateral fluidity", "assay_type": "physicochemical", "settings": "1 mol % FAM tagged amidine in E2 on COOH quartz"}, "MC3T3-E1 cells": {"tested_on": "MC3T3-E1 cells", "test": "Cell attachment and detachment on GRGDS functionalized rSAMs", "settings": "for reduction in average projected cell area on MDSA versus MBA-SAMs: absence of GRGDS 3 in the layer; for average projected cell area: 5 hours"}, "[4]": {"test": "Critical micelle concentration from assembly kinetics, in situ ellipsometry", "assay_type": "physicochemical", "settings": "pH 9 buffer"}, "[5]": {"test": "Air and rinse stability of rSAMs, rinsing and drying cycles", "assay_type": "physicochemical", "settings": "rSAM on MHA-gold"}, "[6]": {"test": "Water solubility (qualitative)", "assay_type": "physicochemical"}, "HA": {"target": "HA", "settings": "cited from earlier work"}, "[7]": {"tested_on": "Influenza A H5N1 (A/Anhui/2005) hemagglutinin (HA)", "assay_type": "binding"}, "[8]": {"tested_on": "deactivated influenza virus H5N1", "assay_type": "binding, Influenza A Virus, A/Anhui/01/2005(H5N1)"}, "[9]": {"settings": "100 μM added to cells on XGRGDS3,filler2=0.25 on MBA SAMs, 30 minutes"}}, "note": "Like-named read-outs stand apart in the source and are kept apart here.", "data": [{"molecule": "N=C(N)c1ccc(OCCCCCCCCCCOc2ccc(CCOCCOCCO)cc2)cc1", "note": "[E2, 4-[10-(4-{2-[2-(2-Hydroxy-ethoxy)-ethoxy]-ethyl}-phenoxy)-decyloxy]-benzamidine]", "values": [{"measurement": "reduction of protein adsorption based on amide I band intensity", "setting": "[1]", "result": "more than 50%"}, {"measurement": "pH resistance of rinsed layers", "setting": "[2]", "result": "up to 6"}, {"measurement": "diffusion coefficient from FRAP", "setting": "[3]", "result": "matching literature values of supported lipid bilayers"}, {"measurement": "reduction in average projected cell area on MDSA versus MBA-SAMs", "setting": "MC3T3-E1 cells", "result": 28, "unit": "%"}]}, {"molecule": "N=C(N)c1ccc(OCCCCCCCCCCOc2ccc(CCOCCOCCOCCOCCO)cc2)cc1", "note": "[E4, 4-(10-{4-[2-(2-{2-[2-(2-Hydroxy-ethoxy)-ethoxy]-ethoxy}-ethoxy)-ethyl]-phenoxy}-decyloxy)-benzamidine]", "values": [{"measurement": "critical micelle concentration (CMC)", "setting": "[4]", "result": "approximately 5 μM"}, {"measurement": "protein adsorption / resistance", "setting": "[1]", "result": "less resistant"}, {"measurement": "reduction in average projected cell area", "setting": "MC3T3-E1 cells; 100 μM added to cells on XGRGDS3,filler2=0.25 on MBA SAMs, 37° C., 30 minutes", "result": 65, "unit": "%"}, {"measurement": "cell shape after addition", "setting": "MC3T3-E1 cells; [9]", "result": "dramatic transition from a spread-out cell shape to a non-adhesive round shape"}, {"measurement": "surface coverage by adherent cells normalized on average projected cell area", "setting": "MC3T3-E1 cells; XGRGDS3,filler2=0 on MDSA-SAMs", "result": 12, "unit": "%"}, {"measurement": "average projected cell area", "setting": "MC3T3-E1 cells; XGRGDS3,filler2=0 on MDSA-SAMs", "result": 1634, "unit": "μm^2"}, {"measurement": "reduction in average projected cell area on MDSA versus MBA-SAMs", "setting": "MC3T3-E1 cells", "result": "no significant differences"}, {"measurement": "cells after replacing medium with fresh medium", "setting": "MC3T3-E1 cells; after 100 μM exposure, fresh medium, 37° C., 24 hrs", "result": "retain their adhesive characteristic"}]}, {"molecule": "N=C(N)c1ccc(OCCCCCCCCCCOc2ccc(CCOCCOCCOCCOCCOCCOCCO)cc2)cc1", "note": "[E6, 4-{10-[4-(2-{2-[2-(2-{2-[2-(2-Hydroxy-ethoxy)-ethoxy]-ethoxy}-ethoxy)-ethoxy]-ethoxy}-ethyl)-phenoxy]-decyloxy}-benzamidine]", "values": [{"measurement": "protein adsorption / resistance", "setting": "[1]", "result": "less resistant"}, {"measurement": "decrease in layer thickness after 2 cycles of rinsing with pH 8 buffer and drying", "setting": "[5]", "result": 9, "unit": "Å"}]}, {"molecule": "C=C(C(=O)CNN[C@@H](CCCNC(=N)N)C(=O)NCC(=O)N[C@@H](CC(=O)O)C(=O)N[C@@H](CO)C(=O)O)c1cn(COCCOCCc2ccc(OCCCCCCCCCCOc3ccc(C(=N)N)cc3)cc2)nn1", "note": "[GRGDS 3, (2S,5S,11S)-16-(1-((2-(4-((10-(4-carbamimidoylphenoxy)decyl)oxy)phenethoxy)ethoxy)methyl)-1H-1,2,3-triazol-4-yl)-5-(carboxymethyl)-11-(3-guanidinopropyl)-2-(hydroxymethyl)-4,7,10,15-tetraoxo-3,6,9,12,13-pentaazaheptadec-16-enoic acid]", "values": [{"measurement": "average projected cell area", "setting": "MC3T3-E1 cells; XGRGDS3,filler2=0.1 on MDSA-SAMs", "result": 1183, "unit": "μm^2"}, {"measurement": "average projected cell area", "setting": "MC3T3-E1 cells; XGRGDS3,filler2=0.25 on MDSA-SAMs", "result": 1282, "unit": "μm^2"}, {"measurement": "coverage of adhered cells versus amount in layer", "setting": "MC3T3-E1 cells; XGRGDS3=0-0.25, 5 hours", "result": "correlated with the increasing amount of GRGDS3"}, {"measurement": "average projected cell area versus surface without GRGDS3", "setting": "MC3T3-E1 cells; with filler 1, XGRGDS3=0.25 on MBA SAMs", "result": "an increase in average projected cell area"}, {"measurement": "average projected cell area versus GRGDS density", "setting": "MC3T3-E1 cells; with filler 1 on MDSA SAMs", "result": "no distinct differences"}, {"measurement": "average projected cell area versus surface without GRGDS3", "setting": "MC3T3-E1 cells; with filler 2, XGRGDS3=0.1 and 0.25 on MDSA SAMs", "result": "a decrease in average projected cell area"}, {"measurement": "average projected cell area versus GRGDS density", "setting": "MC3T3-E1 cells; with filler 2 on MBA SAMs", "result": "no distinct differences"}]}, {"molecule": "N=C(N)NCCC[C@H](N)C(=O)O", "note": "[L-Arginine, reference compound]", "values": [{"measurement": "cell shape after addition", "setting": "MC3T3-E1 cells; [9]", "result": "most of the cells remained the spread-out shape"}]}, {"molecule": "Cl.N=C(N)c1ccc(OCCCCCCCCCCOc2ccc(CCO)cc2)cc1", "note": "[compound 1, Amino(4-(10-(4-(2-hydroxyethyl)phenoxy)decyloxy)phenyl)methaniminium chloride]", "values": [{"measurement": "water solubility", "setting": "[6]", "result": "poorly water-soluble"}, {"measurement": "water solubility", "setting": "[6]; listed as E0", "result": "poorly water soluble"}, {"measurement": "protein adsorption / resistance", "setting": "[1]", "result": "most pronounced protein adsorption"}]}, {"molecule": "CC(=O)NC1C(O)CC(OCCc2cn(CCOCCOCCc3ccc(OCCCCCCCCCCOc4ccc(C(=N)N)cc4)cc3)nn2)(C(=O)O)OC1C(O)C(O)CO", "note": "(stereo not drawn) [compound 2, 5-Acetylamino-2-[2-(1-{2-[2-(2-{4-[10-(4-carbamimidoyl-phenoxy)-decyloxy]-phenyl}-ethoxy)-ethoxy]-ethyl}-1H-[1,2,3]triazol-4-yl)-ethoxy]-4-hydroxy-6-(1,2,3-trihydroxy-propyl)-tetrahydro-pyran-2-carboxylic acid]", "values": [{"measurement": "water solubility", "setting": "[6]", "result": "highly water soluble"}]}, {"molecule": "CO[C@]1(C(=O)O)C[C@H](O)[C@@H](NC(C)=O)[C@H]([C@H](O)[C@H](O)CO)O1", "note": "[α-methyl sialoside]", "values": [{"measurement": "Kd", "setting": "HA; read-out: Kd per SA or HA monomer unit", "result": 2000, "unit": "µM"}]}, {"molecule": "mucin", "values": [{"measurement": "effect of preincubating HA with mucin on HA binding to rSAM-2", "setting": "[7]", "result": "effectively suppressed"}, {"measurement": "effect of mucin masking on virus adsorption to rSAM-2", "setting": "[8]", "result": "effectively suppressed"}, {"measurement": "Ki", "setting": "HA; read-out: Ki of binding to HA", "result": 2, "unit": "µM"}]}]}
